Data taken from US20080207522A1, “Antimicrobial Peptides” (priority 2004, published 2008).

What was measured:
[1] = tested on: Pseudomonas aeruginosa strain H1001; experiment: Assay for the cleaved (free, soluble) peptides from cellulose support, luminescence killing assay; assay type: cell-based; parameters: key: 1: Peptides showing stronger killing than Bac2A at a 4 to 8-fold higher dilution; Peptides showing stronger killing compared to that of Bac2A at a 4-fold higher dilution; 3: Peptides similar to Bac2A; 4: Peptides similar to Bac2A at the highest concentration but demonstrating weaker killing at a 2-fold dilution; 5: Peptides giving very weak or no killing at a 2-fold dilution; 6: Peptides with weak killing activity at the highest concentration; details: free (cleaved) peptides, killing relative to Bac2A
How it was run: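 Cellulose-synthesized peptides (amidated C-terminus, two β-alanines) cleaved by ammonia, released from punched spots 30 min at 37 °C, then serially diluted. P. aeruginosa H1001 (constitutive fliC::luxCDABE) overnight culture diluted 1:500 in LB or 100 mM Tris pH 7.3/20 mM glucose. Killing followed as time-dependent luminescence loss at 37 °C.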

[2] = tested on: Pseudomonas aeruginosa strain H1001 fliC::luxCDABE; experiment: Luminescence-based assay for the non-cleaved (bound) peptides on cellulose membranes; assay type: cell-based; details: for Luminescence at the given time in minutes: 0 / Luminescence at the given time in minutes: 20 / Luminescence at the given time in minutes: 40 / Luminescence at the given time in minutes: 60 / Luminescence at the given time in minutes: 80 / Luminescence at the given time in minutes: 100 / Luminescence at the given time in minutes: 120 / Luminescence at the given time in minutes: 180 / Luminescence at the given time in minutes: 240: cellulose-bound peptide; for Luminescence at the given time in minutes: 0: 0 min; for Luminescence at the given time in minutes: 20: 20 min; for Luminescence at the given time in minutes: 40: 40 min; for Luminescence at the given time in minutes: 60: 60 min; for Luminescence at the given time in minutes: 80: 80 min; for Luminescence at the given time in minutes: 100: 100 min; for Luminescence at the given time in minutes: 120: 120 min; for Luminescence at the given time in minutes: 180: 180 min; for Luminescence at the given time in minutes: 240: 240 min; for Activity Class bound: uncleaved cellulose-bound peptides
How it was run: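 Peptides remained bound to cellulose spots, which were ethanol-washed and equilibrated in 100 mM Tris pH 7.3. Constitutively lux-expressing P. aeruginosa (OD600 0.35 culture diluted 1:25) added in 10 mM Tris-HCl pH 7.3, 20 mM glucose at 37° C. Luminescence (RLU) followed over 14 time points; peptides binned into six activity classes.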

| Sequence | Activity Class Soluble [1] | Luminescence at the given time in minutes: 0 [2] | Luminescence at the given time in minutes: 20 [2] | Luminescence at the given time in minutes: 40 [2] | Luminescence at the given time in minutes: 60 [2] | Luminescence at the given time in minutes: 80 [2] | Luminescence at the given time in minutes: 100 [2] | Luminescence at the given time in minutes: 120 [2] | Luminescence at the given time in minutes: 180 [2] | Luminescence at the given time in minutes: 240 [2] | Activity Class bound [2] |
| --- | --- | --- | --- | --- | --- | --- | --- | --- | --- | --- | --- |
| RIVLRRAAVIRV [Bac039] | 5 | 4727 RLU | 7074 RLU | 5814 RLU | 5262 RLU | 4994 RLU | 4717 RLU | 4569 RLU | 4524 RLU | 5392 RLU | 6 (Peptides having residual luminescence (lux) values greater than 3000 after 240 min.) |
| RARIVRVRVILA [Bac016] | 2 | 4172 RLU | 6362 RLU | 2916 RLU | 678 RLU | 142 RLU | 80 RLU | 60 RLU | 68 RLU | 22 RLU | 3 (Peptides similar to Bac2A resulting in lux values of less than 500 after 240 min.) |
| RLRVAIVAIVRR [Bac041] | 4 | 4620 RLU | 5674 RLU | 615 RLU | 54 RLU | 68 RLU | 37 RLU | 77 RLU | 53 RLU | 37 RLU | 2 (Peptides reducing lux values to between 500 and 1000 after 40 min.) |
| VLARVVARRIRI [Bac040] | 5 | 4220 RLU | 6241 RLU | 4269 RLU | 3951 RLU | 3368 RLU | 2880 RLU | 2761 RLU | 2300 RLU | 2415 RLU | 5 (Peptides reducing luminescence (lux) values to between 1500 to 3000 after 240 min.) |
| RAIIRRVLVRVA [Bac024] | 4 | 4164 RLU | 7630 RLU | 5586 RLU | 4358 RLU | 3256 RLU | 2398 RLU | 1727 RLU | 1384 RLU | 1373 RLU | 4 (Peptides reducing luminescence (lux) values to between 500 to 1499 after 240 min.) |
| RRIARVIVAVLR [Bac002] | 3 | 4340 RLU | 6090 RLU | 1631 RLU | 135 RLU | 58 RLU | 48 RLU | 35 RLU | 59 RLU | 48 RLU | 3 (Peptides similar to Bac2A resulting in lux values of less than 500 after 240 min.) |
| RRVAIVVIARLR [Bac018] | 2 | 4966 RLU | 6080 RLU | 981 RLU | 82 RLU | 44 RLU | 60 RLU | 62 RLU | 50 RLU | 39 RLU | 2 (Peptides reducing lux values to between 500 and 1000 after 40 min.) |
| IVRVAVALRRIR [Bac005] | 3 | 3853 RLU | 6844 RLU | 5163 RLU | 4287 RLU | 3443 RLU | 2254 RLU | 1891 RLU | 1665 RLU | 1791 RLU | 5 (Peptides reducing luminescence (lux) values to between 1500 to 3000 after 240 min.) |
| VIALVRARVRRI [Bac049] | 3 | 4926 RLU | 7239 RLU | 5219 RLU | 4106 RLU | 3188 RLU | 2524 RLU | 2059 RLU | 1687 RLU | 1794 RLU | 5 (Peptides reducing luminescence (lux) values to between 1500 to 3000 after 240 min.) |
| IARRIVAVRLRV [Bac026] | 3 | 4873 RLU | 6389 RLU | 4439 RLU | 2341 RLU | 1080 RLU | 518 RLU | 302 RLU | 201 RLU | 208 RLU | 3 (Peptides similar to Bac2A resulting in lux values of less than 500 after 240 min.) |
| RRLVAIVAVRRI [Bac007] | 4 | 3943 RLU | 7157 RLU | 4403 RLU | 2010 RLU | 679 RLU | 205 RLU | 90 RLU | 89 RLU | 79 RLU | 3 (Peptides similar to Bac2A resulting in lux values of less than 500 after 240 min.) |
| LAIVRRARVRIV [Bac031] | 5 | 4646 RLU | 7357 RLU | 5808 RLU | 5146 RLU | 4145 RLU | 3815 RLU | 3472 RLU | 3130 RLU | 3247 RLU | 6 (Peptides having residual luminescence (lux) values greater than 3000 after 240 min.) |
| ARRLIVRVRVIA [Bac003] | 5 | 4138 RLU | 5992 RLU | 3320 RLU | 906 RLU | 192 RLU | 74 RLU | 83 RLU | 76 RLU | 36 RLU | 3 (Peptides similar to Bac2A resulting in lux values of less than 500 after 240 min.) |
| ARAILIRVVRRV [Bac025] | 3 | 4354 RLU | 6728 RLU | 3660 RLU | 1127 RLU | 343 RLU | 113 RLU | 115 RLU | 114 RLU | 80 RLU | 3 (Peptides similar to Bac2A resulting in lux values of less than 500 after 240 min.) |
